According to ChEMBL document CHEMBL1128363, “Design, synthesis, biology, and conformations of bicyclic alpha-melanotropin analogues” (J Med Chem, 1995):
Calls of active or inactive are those of the source. No cut-off for these calls is given here. Where a SMILES comes first, the peptide text is derived from it. [ ]: non-standard residue; d: D form.

Key:
Type in all cases: functional
[1] = Activity expressed as EC50 was measured in lizard.
lizard [2] = test: Potency measured in lizard where (+) indicates peptide is long acting and (-) indicates peptide is not long acting.
frog [3] = test: Potency measured in frog where (+) indicates peptide is long acting.
[4] = Activity expressed as EC50 was measured in frog.
lizard [5] = test: Potency of compound was measured in lizard where (-) indicates peptide is not prolonged acting.
frog [6] = test: Potency measured in frog where (-) indicates peptide is not long acting.
frog [7] = test: Potency of compound was measured in frog; Inactive
[8] = Activity of compound expressed as EC50 was measured in frog; Inactive
lizard [9] = test: Potency of compound was measured in lizard; Inactive
[10] = Activity of compound expressed as EC50 was measured in lizard; Inactive
lizard [11] = test: Potency of compound was measured in lizard where (+) indicates peptide is prolonged acting.
frog [12] = test: Potency of compound was measured in frog where (+) indicates peptide is prolonged acting and (-) indicates peptide is not prolonged acting.
frog [13] = test: Potency of compound was measured in frog

EC50 [1] | EC50 [4] | Compound | Potency (lizard [2]) | Potency (frog [6]) | further results
33 nM | 33 nM | CC(=O)N[C@@H]1CSSC[C@@H](C(N)=O)NC(=O)[C@@H]2CCCCNC(=O)C[C@@H](NC1=O)C(=O)N[C@@H](Cc1c[nH]cn1)C(=O)N[C@H](Cc1ccccc1)C(=O)N[C@@H](CCCN=C(N)N)C(=O)N[C@H](Cc1c[nH]c3ccccc13)C(=O)N2 | 0.03 | – | Potency (frog [3]): 0.003
10 nM | 150 nM | CC(=O)N[C@@H](Cc1cnc[nH]1)C(=O)N[C@H](Cc1ccccc1)C(=O)N[C@@H](CCCNC(=N)N)C(=O)N[C@@H](Cc1c[nH]c2ccccc12)C(N)=O | – | 0.001 | Potency (lizard [5]): 0.1
– | – | CC(=O)N[C@@H](Cc1c[nH]cn1)C(=O)N[C@H](Cc1ccccc1)C(=O)N[C@@H](CCCN=C(N)N)C(N)=O | – | – | Potency (frog [7]): inactive; EC50 [8]: Not Active; Potency (lizard [9]): inactive; EC50 [10]: Not Active
15000 nM | 30000 nM | CC(=O)N[C@@H](Cc1c[nH]cn1)C(=O)N[C@@H](Cc1ccccc1)C(=O)N[C@@H](CCCN=C(N)N)C(=O)N[C@@H](Cc1c[nH]c2ccccc12)C(N)=O | – | 5e-06 | Potency (lizard [5]): 0.0014
– | 1200 nM | N=C(N)NCCC[C@H]1NC(=O)[C@@H](Cc2ccccc2)NC(=O)[C@@H](Cc2c[nH]cn2)NC(=O)CNC(=O)CNC(=O)[C@H](Cc2c[nH]c3ccccc23)NC1=O | – | – | –
1000 nM | 10000 nM | CC(=O)N[C@H](Cc1ccccc1)C(=O)N[C@@H](CCCN=C(N)N)C(=O)N[C@@H](Cc1c[nH]c2ccccc12)C(N)=O (Ac-[dF]-Arg-Trp-NH2) | – | – | Potency (lizard [11]): 0.001; Potency (frog [3]): 1e-05
33 nM | 2.5 nM | CC(=O)N[C@@H]1CSSC[C@H]2NC(=O)[C@@H](Cc3c[nH]c4ccccc34)NC(=O)[C@H](CCCN=C(N)N)NC(=O)C(Cc3ccccc3)NC(=O)[C@H](Cc3c[nH]cn3)NC(=O)[C@@H](CC(=O)NCCCC[C@H](C(=O)N3CCC[C@@H]3C(=O)N[C@H](C(N)=O)C(C)C)NC2=O)NC1=O (stereo in doubt) | 0.03 | – | Potency (frog [3]): 0.04
400 nM | 28 nM | CC(=O)N[C@@H]1CSSC[C@H]2NC(=O)[C@@H](Cc3c[nH]c4ccccc34)NC(=O)[C@H](CCCN=C(N)N)NC(=O)[C@H](Cc3ccccc3)NC(=O)[C@H](Cc3c[nH]cn3)NC(=O)[C@@H](CCC(=O)NCCCC[C@@H](C(N)=O)NC2=O)NC1=O | 0.0025 | 0.0035 | –
33 nM | 6 nM | CC(=O)N[C@@H]1CSSC[C@H]2NC(=O)[C@@H](Cc3c[nH]c4ccccc34)NC(=O)[C@H](CCCN=C(N)N)NC(=O)[C@H](Cc3ccccc3)NC(=O)[C@H](Cc3c[nH]cn3)NC(=O)[C@@H](CC(=O)NCCCC[C@@H](C(N)=O)NC2=O)NC1=O | 0.03 | – | Potency (frog [12]): 0.018
– | 1000 nM | CCCC[C@H](NC(C)=O)C(=O)NC1CCCNC(=O)CC[C@H](C(=O)N[C@@H](Cc2c[nH]c3ccccc23)C(=O)NCC(=O)N[C@@H](CCCCN)C(N)=O)NC(=O)[C@@H](Cc2ccccc2)NC(=O)[C@@H](Cc2c[nH]cn2)NC1=O (stereo in doubt) | – | 0.001 | Potency (lizard [9]): inactive
0.3 nM | 0.04 nM | CC(=O)N[C@@H]1CSSC[C@H](C(=O)N[C@H](CCCCN)C(N)=O)NC(=O)[C@@H](Cc2c[nH]c3ccccc23)NC(=O)[C@H](CCCN=C(N)N)NC(=O)C(Cc2ccccc2)NC(=O)[C@H](Cc2c[nH]cn2)NC(=O)[C@@H](CCC(=O)O)NC1=O (stereo in doubt) | – | 2.5 | Potency (lizard [5]): 3
– | 0.1 nM | CCCC[C@H](NC(C)=O)C(=O)N[C@@H]1CC(=O)NCCCC[C@H](C(N)=O)NC(=O)C(C)(C)NC(=O)[C@@H](Cc2c[nH]c3ccccc23)NC(=O)[C@H](CCCN=C(N)N)NC(=O)[C@@H](Cc2ccccc2)NC(=O)[C@@H](Cc2c[nH]cn2)NC1=O | – | – | Potency (frog [13]): 1
